The results in this text go back to paper PMC7014678 (International Journal of Molecular Sciences, 2020).

For assay [1], the target named is T1, Rv3273-β (Mycobacterium tuberculosis, UniProt P96878). Briefly: biochemical.
Assay [2] addresses T2, BpsCA-β (Burkholderia pseudomallei, UniProt Q63Y17).
T2 construct: gene BPSL0372
Briefly: biochemical.

Assay [3] addresses T3, VchCA-β (Vibrio cholerae, UniProt A0A086SLX8).
T3 construct: gene can
Briefly: biochemical.

Assay [4] deals with T4, BpsCA-γ.
T4 construct: gene BpsCA-gamma
Type of assay: biochemical, Burkholderia pseudomallei.

For assay [5], the target named is T5, VchCA-α (Vibrio cholerae, UniProt Q9KMP6).
T5 construct: gene VC_A0274
Briefly: biochemical.

Assay [6] addresses T6, StCA2-β.
T6 construct: recombinant, obtained in-house; construct not described
The assay is described as follows: stopped-flow CO2 hydration assay. Type of assay: biochemical, Salmonella enterica subsp. enterica serovar Typhimurium. Particulars: CO2 1.7-17 mM; pH 8.3 TRIS; 20 mM Na2SO4; 15 min preincubation, room temperature.

Assay [7] deals with T1, Rv3273-β. The assay is described as follows: biochemical. The source holds these as a separate data set.
In assay [8] the target is T5, VchCA-α. The assay is described as follows: biochemical. This is another data set of the same source.
Assay [9] has as its target T2, BpsCA-β. Briefly: biochemical. The source holds these as a separate data set.
For assay [10], the target named is T3, VchCA-β. Briefly: biochemical. The source holds these as a separate data set.

Read-outs that look alike come from different tables or passages of the source.

T1 sequence (P96878 540-764 limits assumed): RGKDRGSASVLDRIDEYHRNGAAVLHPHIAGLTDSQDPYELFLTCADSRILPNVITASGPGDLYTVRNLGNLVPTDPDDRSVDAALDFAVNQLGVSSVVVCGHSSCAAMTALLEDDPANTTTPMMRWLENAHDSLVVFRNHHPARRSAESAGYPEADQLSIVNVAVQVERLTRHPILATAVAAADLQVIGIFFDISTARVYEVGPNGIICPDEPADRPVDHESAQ
T2 sequence (Q63Y17 1-256): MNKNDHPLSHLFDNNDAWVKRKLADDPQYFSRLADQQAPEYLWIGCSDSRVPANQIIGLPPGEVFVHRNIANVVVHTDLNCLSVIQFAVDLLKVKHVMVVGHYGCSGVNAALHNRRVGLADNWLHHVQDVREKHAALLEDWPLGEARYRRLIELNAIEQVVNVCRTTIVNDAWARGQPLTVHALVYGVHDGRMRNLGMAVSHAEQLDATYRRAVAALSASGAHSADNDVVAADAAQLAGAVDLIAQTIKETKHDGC
T3 sequence (A0A086SLX8 1-222): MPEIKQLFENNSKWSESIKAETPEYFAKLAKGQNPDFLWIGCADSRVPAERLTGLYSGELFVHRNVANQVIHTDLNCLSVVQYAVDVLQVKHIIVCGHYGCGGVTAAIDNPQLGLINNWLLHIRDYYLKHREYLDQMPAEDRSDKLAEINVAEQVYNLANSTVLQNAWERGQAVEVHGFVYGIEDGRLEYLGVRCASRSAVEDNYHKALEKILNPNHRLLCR
T5 sequence (Q9KMP6 21-239 limits assumed): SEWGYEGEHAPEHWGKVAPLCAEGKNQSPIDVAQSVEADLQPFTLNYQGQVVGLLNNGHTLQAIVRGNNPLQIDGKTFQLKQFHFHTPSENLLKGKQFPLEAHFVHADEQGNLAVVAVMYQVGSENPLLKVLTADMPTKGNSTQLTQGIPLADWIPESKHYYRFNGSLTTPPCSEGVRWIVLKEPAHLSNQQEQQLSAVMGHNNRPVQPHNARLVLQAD

On to `CC(O)CSCC(=O)Nc1ccc(S(N)(=O)=O)cc1` (stereo not drawn) [3e], for which the Ki in [1] is 214 nM; in [2] it was > 10000 nM; in assay [3], 6650 nM; in [4], 322 nM; in assay [5] it was 44.7 nM.
For the compound `NS(=O)(=O)c1ccc(C[Se]c2ccc(NC(=O)CSc3ccc(Br)cc3)cc2)cc1` [5b], the Ki is > 10000 nM in assay [2]; 581 nM in [3]; 45.8 nM in assay [5]; 8.2 nM in assay [6]; > 10000 nM in assay [7].
Turning to `NS(=O)(=O)c1ccc(NC(=O)C[Se]c2ccccc2)cc1` [7a], the Ki amounted to 203 nM in [1]; 2.2 nM in assay [8]; 304 nM in [4] (CO2 1.7-17 mM, buffer pH for γ-CA not stated, 20 mM Na2SO4, 15 min preincubation, room temperature); 4090 nM in [9]; 96.3 nM in assay [10].
For `Cc1ccc([Se]CC(=O)Nc2ccc(S(N)(=O)=O)cc2)cc1` [7b], the Ki in assay [2] is > 10000 nM; in assay [3], 762 nM; in assay [5] it was 7.7 nM; in [7] it was 283 nM.
For `Cc1ccccc1[Se]CC(=O)Nc1ccc(S(N)(=O)=O)cc1` [7c], the Ki is > 10000 nM in assay [2] (read-out: BpsCA-β, inhibitor); 6210 nM in assay [3] (read-out: VchCA-β, inhibitor); 41.7 nM in assay [5] (read-out: VchCA-α, inhibitor); > 10000 nM in assay [7] (read-out: Rv3273-β, inhibitor).
Consider `NS(=O)(=O)c1ccc(CCNC(=O)C[Se]c2ccccc2)cc1` [8a], for which the Ki in assay [2] is > 10000 nM; in [3], 6590 nM; in assay [5], 44.4 nM; in assay [7], 1500 nM.
In the case of `COc1ccc([Se]CC(=O)NCCc2ccc(S(N)(=O)=O)cc2)cc1` [8c], the Ki was 3.2 nM in assay [8], > 10000 nM in assay [2], 85 nM in assay [10] and > 10000 nM in assay [7].
For the compound `Cc1ccc(S(=O)(=O)N[C@H](C[Se]CC(=O)NCCc2ccc(S(N)(=O)=O)cc2)C(C)C)cc1` [8d], the Ki is > 10000 nM in assay [2], 828 nM in assay [3], 62.3 nM in [5] and > 10000 nM in [7].
On to `C=C(C)[C@H]1CCC(C)(O)C([Se]CC(=O)NCCc2ccc(S(N)(=O)=O)cc2)C1` (stereo partly drawn) [8e], for which the Ki was 6.1 nM in assay [8]; > 10000 nM in assay [2]; 309 nM in [3]; 8.9 nM in assay [6]; > 10000 nM in [7].
In the case of `COc1ccc([Se]CC(=O)Nc2ccc([Se]Cc3ccc(S(N)(=O)=O)cc3)cc2)cc1` [9d], the Ki was > 10000 nM in assay [2]; 8.9 nM in [5]; 7.5 nM in assay [6]; 82.9 nM in [10]; > 10000 nM in [7].
